Assay results taken from US20160108049A1 (TAKEDA Gmbh, priority 2011, published 2016).

How the values were obtained:
PDE4B1 = target: T1, PDE4B1 (Homo sapiens, UniProt Q07343); test: Inhibition of PDE4 activity (PDE4B1, SPA assay); format: biochemical; conditions: recombinant PDE4B1, 0.5 μM cAMP; read-out: PDE4B1 Inhibitory values measured as -logIC50 (converted)
T1 construct: made in house; host or cells: SF21 insect cells (baculovirus; virus made in SF9 cells, pCR-Bac vector)
Procedure, shortened: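 Read-out is SPA yttrium silicate bead scintillation after IBMX-containing beads stop the reaction. Insect-cell (SF21) lysate enzyme hydrolysed 0.5 μM [3H]cAMP at pH 7.4 with 5 mM Mg2+ for 15 min after a 5 min 37 °C preincubation; IC50 fitted by non-linear regression.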

human PDE5 = target: T2, human PDE5 (Homo sapiens, UniProt O76074); test: Inhibition of PDE5 activity (platelet lysate, SPA assay); format: biochemical; conditions: 0.5 μM cGMP, read-out: PDE5 Inhibitory values measured as -logIC50 (converted)
T2 construct: from tissue; host or cells: human platelets from fresh donor blood (platelet lysate)
Procedure, shortened: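 SPA readout of [3H]cGMP hydrolysis (0.5 μM, 15 min, 37 °C after 5 min preincubation), stopped with yttrium silicate beads containing IBMX. Enzyme was lysate from human platelets, used at 10–20% substrate turnover, with PDE3 (motapizone 1 μM) and PDE2 (10 nM) blockers present. IC50 values fitted non-linearly from concentration-effect curves.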

T1 sequence (Q07343 whole entry): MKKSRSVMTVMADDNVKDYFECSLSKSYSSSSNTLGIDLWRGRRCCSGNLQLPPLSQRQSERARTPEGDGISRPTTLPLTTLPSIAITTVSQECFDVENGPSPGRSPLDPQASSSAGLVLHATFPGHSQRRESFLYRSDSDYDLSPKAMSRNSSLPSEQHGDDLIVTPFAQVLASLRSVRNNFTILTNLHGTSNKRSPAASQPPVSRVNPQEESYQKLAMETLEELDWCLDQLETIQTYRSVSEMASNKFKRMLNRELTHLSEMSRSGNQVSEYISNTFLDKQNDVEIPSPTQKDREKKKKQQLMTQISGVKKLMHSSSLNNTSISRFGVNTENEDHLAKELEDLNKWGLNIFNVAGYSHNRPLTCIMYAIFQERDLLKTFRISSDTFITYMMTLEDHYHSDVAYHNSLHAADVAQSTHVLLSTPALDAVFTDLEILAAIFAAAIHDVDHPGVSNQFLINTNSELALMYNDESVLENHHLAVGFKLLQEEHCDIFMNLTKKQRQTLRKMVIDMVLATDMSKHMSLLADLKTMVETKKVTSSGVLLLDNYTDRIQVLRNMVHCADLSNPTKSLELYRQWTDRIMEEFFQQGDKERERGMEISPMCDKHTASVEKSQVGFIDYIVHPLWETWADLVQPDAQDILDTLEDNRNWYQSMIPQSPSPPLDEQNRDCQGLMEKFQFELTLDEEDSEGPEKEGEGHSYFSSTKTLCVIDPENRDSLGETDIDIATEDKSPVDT

## COc1ccc(C2=NN(C3CCN(C(=O)[C@H](Cc4ccccn4)NC(=O)c4c(C)[nH]c5c(-c6c(OCC7CC7)ccc7c6OCO7)ncnc45)CC3)C(=O)[C@@H]3CCCC[C@H]23)cc1OC [Example 38, 4-[5-(cyclopropylmethoxy)-1,3-benzodioxol-4-yl]-N-[(2S)-1-{4-[(4aS,8aR)-4-(3,4-dimethoxyphenyl)-1-oxo-4a,5,6,7,8,8a-hexahydrophthalazin-2(1H)-yl]piperidin-1-yl}-1-oxo-3-(pyridin-2-yl)propan-2-yl]-6-methyl-5H-pyrrolo[3,2-d]pyrimidine-7-carboxamide]
PDE4B1
  IC50: 1 to 10 nM
Human PDE5
  IC50: < 1 nM

## COc1ccc(C2=NN(C3CCN(C(=O)[C@H](Cc4ccccn4)NC(=O)c4c[nH]c5c(-c6c(OCC7CC7)ccc7c6OCO7)ncnc45)CC3)C(=O)[C@@H]3CCCC[C@H]23)cc1OC [Example 39, 4-[5-(cyclopropylmethoxy)-1,3-benzodioxol-4-yl]-N-[(2S)-1-{4-[(4aS,8aR)-4-(3,4-dimethoxyphenyl)-1-oxo-4a,5,6,7,8,8a-hexahydrophthalazin-2(1H)-yl]piperidin-1-yl}-1-oxo-3-(pyridin-2-yl)propan-2-yl]-5H-pyrrolo[3,2-d]pyrimidine-7-carboxamide]
PDE4B1
  IC50: < 1 nM
Human PDE5
  IC50: < 1 nM

## COc1ccc(C2=NN(C3CCN(C(=O)[C@H](Cc4ccncc4)NC(=O)c4c(C)[nH]c5c(-c6c(OCC7CC7)ccc7c6OCO7)ncnc45)CC3)C(=O)[C@@H]3CCCC[C@H]23)cc1OC [Example 40, 4-[5-(cyclopropylmethoxy)-1,3-benzodioxol-4-yl]-N-[(2S)-1-{4-[(4aS,8aR)-4-(3,4-dimethoxyphenyl)-1-oxo-4a,5,6,7,8,8a-hexahydrophthalazin-2(1H)-yl]piperidin-1-yl}-1-oxo-3-(pyridin-4-yl)propan-2-yl]-6-methyl-5H-pyrrolo[3,2-d]pyrimidine-7-carboxamide]
PDE4B1
  IC50: 1 to 10 nM
Human PDE5
  IC50: < 1 nM

## COc1ccc(C2=NN(C3CCN(C(=O)[C@H](Cc4ccncc4)NC(=O)c4c[nH]c5c(-c6c(OCC7CC7)ccc7c6OCO7)ncnc45)CC3)C(=O)[C@@H]3CCCC[C@H]23)cc1OC [Example 41, 4-[5-(cyclopropylmethoxy)-1,3-benzodioxol-4-yl]-N-[(2S)-1-{4-[(4aS,8aR)-4-(3,4-dimethoxyphenyl)-1-oxo-4a,5,6,7,8,8a-hexahydrophthalazin-2(1H)-yl]piperidin-1-yl}-1-oxo-3-(pyridin-4-yl)propan-2-yl]-5H-pyrrolo[3,2-d]pyrimidine-7-carboxamide]
PDE4B1
  IC50: < 1 nM
Human PDE5
  IC50: < 1 nM

## COc1ccc(C2=NN(C3CCN(C(=O)[C@H](Cc4cccnc4)NC(=O)c4c(C)[nH]c5c(-c6c(OCC7CC7)ccc7c6OCO7)ncnc45)CC3)C(=O)[C@@H]3CCCC[C@H]23)cc1OC [Example 42, 4-[5-(cyclopropylmethoxy)-1,3-benzodioxol-4-yl]-N-[(2S)-1-{4-[(4aS,8aR)-4-(3,4-dimethoxyphenyl)-1-oxo-4a,5,6,7,8,8a-hexahydrophthalazin-2(1H)-yl]piperidin-1-yl}-1-oxo-3-(pyridin-3-yl)propan-2-yl]-6-methyl-5H-pyrrolo[3,2-d]pyrimidine-7-carboxamide]
PDE4B1
  IC50: < 1 nM
Human PDE5
  IC50: < 1 nM

## COc1ccc(C2=NN(C3CCN(C(=O)[C@H](Cc4cccnc4)NC(=O)c4c[nH]c5c(-c6c(OCC7CC7)ccc7c6OCO7)ncnc45)CC3)C(=O)[C@@H]3CCCC[C@H]23)cc1OC [Example 43, 4-[5-(cyclopropylmethoxy)-1,3-benzodioxol-4-yl]-N-[(2S)-1-{4-[(4aS,8aR)-4-(3,4-dimethoxyphenyl)-1-oxo-4a,5,6,7,8,8a-hexahydrophthalazin-2(1H)-yl]piperidin-1-yl}-1-oxo-3-(pyridin-3-yl)propan-2-yl]-5H-pyrrolo[3,2-d]pyrimidine-7-carboxamide]
PDE4B1
  IC50: < 1 nM
Human PDE5
  IC50: < 1 nM

## COc1ccc(C2=NN(C3CCN(C(=O)[C@H](Cc4ccccc4)NC(=O)c4c[nH]c5c(-c6c(OCC7CC7)ccc7c6OCO7)ncnc45)CC3)C(=O)[C@H]3CCCC[C@@H]23)cc1OC [Example 44, 4-[5-(cyclopropylmethoxy)-1,3-benzodioxol-4-yl]-N-[(2S)-1-{4-[(4aR,8aS)-4-(3,4-dimethoxyphenyl)-1-oxo-4a,5,6,7,8,8a-hexahydrophthalazin-2(1H)-yl]piperidin-1-yl}-1-oxo-3-phenylpropan-2-yl]-5H-pyrrolo[3,2-d]pyrimidine-7-carboxamide]
PDE4B1
  IC50: > 10 nM
Human PDE5
  IC50: 1 to 10 nM

## COc1ccc(C2=NN(C3CCN(C(=O)[C@@H](Cc4ccccc4)NC(=O)c4c[nH]c5c(-c6c(OCC7CC7)ccc7c6OCO7)ncnc45)CC3)C(=O)[C@H]3CCCC[C@@H]23)cc1OC [Example 45, 4-[5-(cyclopropylmethoxy)-1,3-benzodioxol-4-yl]-N-[(2R)-1-{4-[(4aR,8aS)-4-(3,4-dimethoxyphenyl)-1-oxo-4a,5,6,7,8,8a-hexahydrophthalazin-2(1H)-yl]piperidin-1-yl}-1-oxo-3-phenylpropan-2-yl]-5H-pyrrolo[3,2-d]pyrimidine-7-carboxamide]
PDE4B1
  IC50: > 10 nM
Human PDE5
  IC50: 1 to 10 nM

## COc1ccc(C2=NN(C3CCN(C(=O)[C@@H](Cc4ccc(C(C)(C)C)cc4)NC(=O)c4c(C)[nH]c5c(-c6c(OCC7CC7)ccc7c6OCO7)ncnc45)CC3)C(=O)[C@@H]3CCCC[C@H]23)cc1OC [Example 46, N-[(2R)-3-(4-tert-butylphenyl)-1-{4-[(4aS,8aR)-4-(3,4-dimethoxyphenyl)-1-oxo-4a,5,6,7,8,8a-hexahydrophthalazin-2(1H)-yl]piperidin-1-yl}-1-oxopropan-2-yl]-4-[5-(cyclopropylmethoxy)-1,3-benzodioxol-4-yl]-6-methyl-5H-pyrrolo[3,2-d]pyrimidine-7-carboxamide]
PDE4B1
  IC50: 1 to 10 nM
Human PDE5
  IC50: 1 to 10 nM

## COc1ccc(C2=NN(C3CCN(C(=O)[C@H](Cc4ccc(F)cc4)NC(=O)c4c[nH]c5c(-c6c(OCC7CC7)ccc7c6OCO7)ncnc45)CC3)C(=O)[C@@H]3CCCC[C@H]23)cc1OC [Example 47, 4-[5-(cyclopropylmethoxy)-1,3-benzodioxol-4-yl]-N-[(2S)-1-{4-[(4aS,8aR)-4-(3,4-dimethoxyphenyl)-1-oxo-4a,5,6,7,8,8a-hexahydrophthalazin-2(1H)-yl]piperidin-1-yl}-3-(4-fluorophenyl)-1-oxopropan-2-yl]-5H-pyrrolo[3,2-d]pyrimidine-7-carboxamide]
PDE4B1
  IC50: 1 to 10 nM
Human PDE5
  IC50: 1 to 10 nM

## COc1ccc(C2=NN(C3CCN(C(=O)[C@@H](Cc4ccc(Cl)cc4Cl)NC(=O)c4c[nH]c5c(-c6c(OCC7CC7)ccc7c6OCO7)ncnc45)CC3)C(=O)[C@@H]3CCCC[C@H]23)cc1OC [Example 48, 4-[5-(cyclopropylmethoxy)-1,3-benzodioxol-4-yl]-N-[(2R)-3-(2,4-dichlorophenyl)-1-{4-[(4aS,8aR)-4-(3,4-dimethoxyphenyl)-1-oxo-4a,5,6,7,8,8a-hexahydrophthalazin-2(1H)-yl]piperidin-1-yl}-1-oxopropan-2-yl]-5H-pyrrolo[3,2-d]pyrimidine-7-carboxamide]
PDE4B1
  IC50: < 1 nM
Human PDE5
  IC50: < 1 nM
